# Experimental data: patent publication US11066668B2, “Compositions and methods for modulation of IKBKAP splicing” (Ionis Pharmaceuticals, Inc., priority 2012, dated 2021)
# Oligonucleotides are written 5' to 3', each unit as a sugar letter and its base; * is a phosphorothioate linkage, no mark a phosphodiester; rarer units and linkages stand in square brackets, end groups in braces. Plain capitals give the bases only. e = 2'-O-(2-methoxyethyl) (MOE); [5mC] = 5-methylcytosine
# Columns and labels:
# [1] = tested on: IKAP protein; assay: IKAP protein levels in GM04899 fibroblasts (SDS-PAGE, anti-IKAP antibody, band intensity); type: cell-based, human
# Method: Protein samples were obtained by Trizol extraction and separated by SDS-PAGE. The bands were transferred onto a nitrocellulose membrane and probed with an anti-IKAP antibody (abcam #ab56362) (1:1,000 dilution in 5% milk in TBST) for 12 hrs. The membrane was washed 5 times with TBST for 5 min each and then probed with secondary antibody 800 nm LiCor (1:5,000 in 5% milk in TBST) for 1 hr in the dark. The membrane was subsequently washed 5 times with TBST for 5 min each. The bands were then exposed at 800 nm and band intensity was quantified using an Odyssey (LiCor) instrument. The results are presented in Table 4 as percent increase in band intensity compared to the control oligonucleotide-treated bands.
# [2] = tested on: human IKBKAP mRNA; assay: Exon 20 inclusion in adult transgenic mice after intracerebroventricular infusion; type: in vivo, mouse; conditions: for Percent inclusion of exon 20 in human IKBKAP mRNA: thoracic spinal cord, day 8
# Method: (§1) To investigate the effect of ISIS 421992 in an animal model, transgenic mice that carry the entire human IKBKAP gene with the major FD mutation, in addition to being homozygous wild type at the mouse Ikbkap locus, were obtained from an NIH core facility.
# Adult mice were treated with ISIS 421992 administered by intracerebroventricular infusion at the rate of 50 μg/day, 100 μg/day, or 200 μg/day. The protocol has been previously described by Hua et al. (Genes Dev. 2010. 24: 1634-1644). Adult mice 3-4 months old and weighing 20-30 g, were anesthetized and placed on a digital stereotaxic instrument (David Kopf Instruments). A small burr hole at the surgical site 1.8 mm lateral to the sagittal suture and 0.3 mm posterior to the bregma suture was drilled through the skull above the right lateral ventricle. A cannula with a 2.2 mm stylet was positioned in the hole. The cannula was connected to an Alzet micro-osmotic pump (model 1007D, Durect Corporation) with a vinyl catheter. The pump, prefilled with the oligonucleotide solution or PBS only was implanted subcutaneously on the back and continuously infused the solution through the cannula into the lateral ventricle at a rate of 0.5 μL per hour. After a week of ICV infusion, the mice were euthanized on day 8 and RNA from the thoracic spinal cord of the transgenic mice was extracted using Trizol and following the manufacturer's protocol. Multiple lanes for each condition represent independent experiments.
# [3] = tested on: human IKBKAP mRNA; assay: Exon 20 inclusion in neonatal transgenic mice after single ICV or subcutaneous injection; type: in vivo, mouse; conditions: neonatal Tg mice
# Method: as §1
# Neonatal transgenic mice were also treated with ISIS 421992 administered as a single ICV injection dose of 2.5 μg, 5 μg, 10 μg, 20 μg, or 30 μg. A group of neonatal mice were treated with ISIS 421992 administered subcutaneously using a 10 μL micro syringe (Hamilton) and a 33-gauge needle. In all cases, the injections were administered at P1 and the RNA was assayed at P8. The RNA splicing patterns in the various tissues after administering ISIS 421992 in neonate mice were then observed. Multiple lanes for each condition represent independent experiments.
substance,measurement,setting,value
"ISIS 421992: uniform 2′-MOE 20-mer, phosphate backbone; GTCGCAAACAGTACAATGGC, SEQ ID NO 61, intron 20 (eGeTe[5mC]eGe[5mC]eAeAeAe[5mC]eAeGeTeAe[5mC]eAeAeTeGeGe[5mC])",Percent increase in protein band intensity (IKAP),"[1]; GM04899, 2 nM as printed in Table 4, 3 days after transfection, compared to control oligonucleotide-treated bands",76%
same,"IKAP protein levels, in words","[1]; GM04899, 5 nM, assayed 3 days after transfection",significant increase in IKAP protein levels
same,Percent inclusion of exon 20 in human IKBKAP mRNA,[2]; ICV infusion 50 μg/day for a week,40%
same,Percent inclusion of exon 20 in human IKBKAP mRNA,[2]; ICV infusion 100 μg/day for a week,46%
same,Percent inclusion of exon 20 in human IKBKAP mRNA,[2]; ICV infusion 200 μg/day for a week,60%
same,"inclusion of exon 20 in human IKBKAP mRNA, in words",[2]; ICV infusion 50-200 μg/day,dose-dependent increase in the inclusion of exon 20
same,"tissue pattern of full-length IKBKAP mRNA, in words",[3]; ICV administration,"increased full-length IKBKAP mRNA in the brain and spinal cord, with moderate effects in the peripheral tissues"
same,Percent inclusion of exon 20 in human IKBKAP mRNA,"[3]; ICV administration, Brain",50%
same,Percent inclusion of exon 20 in human IKBKAP mRNA,"[3]; ICV administration, Heart",40%
same,Percent inclusion of exon 20 in human IKBKAP mRNA,"[3]; ICV administration, Kidney",33%
same,Percent inclusion of exon 20 in human IKBKAP mRNA,"[3]; ICV administration, Liver",44%
same,Percent inclusion of exon 20 in human IKBKAP mRNA,"[3]; ICV administration, Muscle",33%
same,Percent inclusion of exon 20 in human IKBKAP mRNA,"[3]; ICV administration, Spinal Cord",47%
same,Percent inclusion of exon 20 in human IKBKAP mRNA,"[3]; s.c. injection, Brain",18%
same,Percent inclusion of exon 20 in human IKBKAP mRNA,"[3]; s.c. injection, Heart",58%
same,Percent inclusion of exon 20 in human IKBKAP mRNA,"[3]; s.c. injection, Kidney",36%
same,Percent inclusion of exon 20 in human IKBKAP mRNA,"[3]; s.c. injection, Liver",72%
same,Percent inclusion of exon 20 in human IKBKAP mRNA,"[3]; s.c. injection, Muscle",60%
same,Percent inclusion of exon 20 in human IKBKAP mRNA,"[3]; s.c. injection, Spinal Cord",19%
same,Percent inclusion of exon 20 in human IKBKAP mRNA,"[3]; single ICV injection 2.5 μg at P1, RNA at P8",13%
same,Percent inclusion of exon 20 in human IKBKAP mRNA,"[3]; single ICV injection 5 μg at P1, RNA at P8",18%
same,Percent inclusion of exon 20 in human IKBKAP mRNA,"[3]; single ICV injection 10 μg at P1, RNA at P8",34%
same,Percent inclusion of exon 20 in human IKBKAP mRNA,"[3]; single ICV injection 20 μg at P1, RNA at P8",36%
same,Percent inclusion of exon 20 in human IKBKAP mRNA,"[3]; single ICV injection 30 μg at P1, RNA at P8",48%
same,"tissue pattern of full-length IKBKAP mRNA, in words",[3]; subcutaneous administration,"primarily affected expression in the liver, skeletal muscle, and heart with moderate effects in the CNS"
